From patent US8722673B2, “Imine compounds for combating invertebrate pests” (BASF SE, priority 2008, dated 2014)

Tests used:
Format in all cases: in vivo
[1] = system: Southern Armyworm (Spodoptera eridania); experiment: Southern armyworm spray test on lima bean plants; details: 96 h, read-out: mortality in comparison with untreated controls
Procedure: (§1) The active compounds were formulated in cyclohexanone as a 10,000 ppm solution supplied in tubes. The tubes were inserted into an automated electrostatic sprayer equipped with an atomizing nozzle and served as stock solutions for which lower dilutions are made in 50% acetone:50% water (v/v). A nonionic surfactant (Kinetic®) was included in the solution at a volume of 0.01% (v/v).
Lima bean plants (variety Sieva) were grown 2 plants to a pot and selected for treatment at the 1st true leaf stage. Test solutions were sprayed onto the foliage by an automated electrostatic plant sprayer equipped with an atomizing spray nozzle. The plants were dried in the sprayer fume hood and then removed from the sprayer. Each pot was placed into perforated plastic bags with a zip closure. About 10 to 11 armyworm larvae were placed into the bag and the bags zipped closed. Test plants were maintained in a growth room at about 25° C. and about 20-40% relative humidity for 4 days, avoiding direct exposure to fluorescent light (24 hour photoperiod) to prevent trapping of heat inside the bags. Mortality and reduced feeding were assessed 4 days after treatment, compared to untreated control plants.

[2] = system: Diamond Back Moth (Plutella xylostella); experiment: Diamond back moth leaf-dip test on Chinese cabbage; details: read-out: mortality in comparison with untreated controls
Procedure: (§2) If not otherwise specified the test solutions were prepared as follow:
(§3) The active compound was dissolved at the desired concentration in a mixture of 1:1 (vol:vol) distilled water:acteon. The test solution was prepared the day it was used and in general at concentrations of […] (wt/vol).
Leaves of Chinese cabbage were dipped in test solution and air-dried. Treated leaves were placed in petri dished lined with moist filter paper. Mortality was recorded 24, 72, and 120 hours after treatment.

[3] = system: Mediterranean Fruitfly (Ceratitis capitata); experiment: Mediterranean fruitfly microtiter plate diet test; details: 120 h, read-out: mortality in comparison with untreated controls
Procedure: For evaluating control of Mediterranean fruitfly (Ceratitis capitata) the test unit consisted of microtiter plates containing an insect diet and 50-80 C. capitata eggs.
(§4) The compounds were formulated using a solution containing 75% v/v water and 25% v/v DMSO. Different concentrations of formulated compounds were sprayed onto the insect diet at 5 μl, using a custom built micro atomizer, at two replications. After application, microtiter plates were incubated at about 28±1° C. and about 80±5% relative humidity for 5 days. Egg and larval mortality was then visually assessed.

[4] = system: Tobacco Budworm (Heliothis virescens); experiment: Tobacco budworm microtiter plate diet test; details: 120 h, read-out: mortality in comparison with untreated controls
Procedure: as §4, with “For evaluating control of tobacco budworm (Heliothis virescens) the test unit consisted of 96-well-microtiter plates containing an insect diet and 15-25 H. virescens eggs. The” for “The”, “at 10” for “at 5”, “plates are” for “plates were”, “mortality is” for “mortality was”

[5] = system: Boll Weevil (Anthonomus grandis); experiment: Boll weevil microtiter plate diet test; details: 120 h, read-out: mortality in comparison with untreated controls
Procedure: as §4, with “For evaluating control of boll weevil (Anthonomus grandis) the test unit consisted of 24-well-microtiter plates containing an insect diet and 20-30 A. grandis eggs. The” for “The”, “at 20” for “at 5”, “about 23±1°” for “about 28±1°”, “about 50±5%” for “about 80±5%”

[6] = system: Vetch Aphid (Megoura viciae); experiment: Vetch aphid leaf disk microtiter plate test; details: foliar, 120 h, read-out: mortality in comparison with untreated controls
Procedure: For evaluating control of vetch aphid (Megoura viciae) through contact or systemic means the test unit consisted of 24-well-microtiter plates containing broad bean leaf disks. The compounds were formulated using a solution containing 75% v/v water and 25% v/v DMSO. Different concentrations of formulated compounds were sprayed onto the leaf disks at 2.5 μl, using a custom built micro atomizer, at two replications. After application, the leaf disks were air-dried and 5-8 adult aphids were placed on the leaf disks inside the microtiter plate wells. The aphids were then allowed to suck on the treated leaf disks and incubated at about 23±1° C. and about 50±5% relative humidity for 5 days. Aphid mortality and fecundity was then visually assessed.

[7] = system: Silverleaf Whitefly (Bemisia argentifolii); experiment: Silverleaf whitefly spray test on cotton plants; details: 72 h, read-out: mortality in comparison with untreated controls
Text: as §1, with “were” for “are”
Cotton plants at the cotyledon stage (one plant per pot) were sprayed by an automated electrostatic plant sprayer equipped with an atomizing spray nozzle. The plants were dried in the sprayer fume hood and then removed from the sprayer. Each pot was placed into a plastic cup and about 10 to 12 whitefly adults (approximately 3-5 days old) were introduced. The insects were collected using an aspirator and a nontoxic Tygon® tubing connected to a barrier pipette tip. The tip, containing the collected insects, was then gently inserted into the soil containing the treated plant, allowing insects to crawl out of the tip to reach the foliage for feeding. Cups were covered with a reusable screened lid. Test plants were maintained in a growth room at about 25° C. and about 20-40% relative humidity for 3 days, avoiding direct exposure to fluorescent light (24 hour photoperiod) to prevent trapping of heat inside the cup. Mortality was assessed 3 days after treatment, compared to untreated control plants.

[8] = system: Cowpea Aphid (Aphis craccivora); experiment: Cowpea aphid spray test on potted cowpea plants; details: 500 ppm; population reduction assessed after 24, 72 and 120 hours
Procedure: as §2, §3
Potted cowpea plants colonized with approximately 100-150 aphids of various stages were sprayed after the pest population had been recorded. Population reduction was assessed after 24, 72, and 120 hours.

[9] = system: Orchid Thrips (Dichromothrips corbetti); experiment: Orchid thrips floral-immersion test; details: 96 h, read-out: mortality in comparison with untreated controls
Procedure: Dichromothrips corbetti adults used for bioassay were obtained from a colony maintained continuously under laboratory conditions. For testing purposes, the test compound was diluted to a concentration of 300 ppm (wt compound: vol diluent) in a 1:1 mixture of acetone:water (vol:vol), plus 0.01% vol/vol Kinetic® surfactant.
Thrips potency of each compound was evaluated by using a floral-immersion technique. Plastic petri dishes were used as test arenas. All petals of individual, intact orchid flowers were dipped into treatment solution and allowed to dry. Treated flowers were placed into individual petri dishes along with 10-15 adult thrips. The petri dishes were then covered with lids. All test arenas were held under continuous light and a temperature of about 28° C. for duration of the assay. After 4 days, the numbers of live thrips was counted on each flower, and along inner walls of each petri dish. The level of thrips mortality was extrapolated from pre-treatment thrips numbers.

| SMILES | mortality at 300 ppm [1] | mortality at 300 ppm [2] | mortality at 2500 ppm [4] | mortality at 2500 ppm [5] | also measured |
| --- | --- | --- | --- | --- | --- |
| COC(=NO)c1ccc(C2=NOC(c3cc(Cl)cc(Cl)c3)(C(F)(F)F)C2)cc1C (single isomer, unassigned) [Compound 1-30, 4-[5-(3,5-Dichloro-phenyl)-5-trifluoromethyl-4,5-dihydro-isoxazol-3-yl]-N-hydroxy-2-methyl-benzimidic acid methyl ester] | ≥ 75% | ≥ 75% | ≥ 75% | ≥ 75% | mortality at 2500 ppm [3]: ≥ 75% |
| COC(=NO)c1ccc(C2=NOC(c3cc(Cl)cc(Cl)c3)(C(F)(F)F)C2)cc1C (single isomer, unassigned) [Compound 1-31, 4-[5-(3,5-Dichloro-phenyl)-5-trifluoromethyl-4,5-dihydro-isoxazol-3-yl]-N-hydroxy-2-methyl-benzimidic acid methyl ester] |  |  |  |  | mortality at 2500 ppm [6]: ≥ 75% |
| Cc1cc(C2=NOC(c3cc(Cl)cc(Cl)c3)(C(F)(F)F)C2)ccc1/C=N/OCC(=O)NCC(F)(F)F (centres unmarked) [Compound 1-9, 2-[1-{4-[5-(3,5-Dichloro-phenyl)-5-trifluoromethyl-4,5-dihydro-isoxazol-3-yl]-2-methyl-phenyl}-meth-(E)-ylideneaminooxy]-N-(2,2,2-trifluoro-ethyl)-acetamide] | ≥ 75% | ≥ 75% | ≥ 75% | ≥ 75% |  |
| Cc1cc(C2=NOC(c3cc(Cl)cc(Cl)c3)(C(F)(F)F)C2)ccc1/C=N/OCC(=O)O (centres unmarked) [Compound 1-12, [1-{4-[5-(3,5-Dichloro-phenyl)-5-trifluoromethyl-4,5-dihydro-isoxazol-3-yl]-2-methyl-phenyl}-meth-(E)-ylideneaminooxy]-acetic acid] |  |  | ≥ 75% |  | mortality at 2500 ppm [6]: ≥ 75%; mortality at 300 ppm [7]: ≥ 75% |
| Cc1cc(C2=NOC(c3cc(Cl)cc(Cl)c3)(C(F)(F)F)C2)ccc1/C=N/OCC(=O)OC(C)(C)C (centres unmarked) [Compound 1-13, [1-{4-[5-(3,5-Dichloro-phenyl)-5-trifluoromethyl-4,5-dihydro-isoxazol-3-yl]-2-methyl-phenyl}-meth-(E)-ylideneaminooxy]-acetic acid tert-butyl ester] | ≥ 75% | ≥ 75% | ≥ 75% |  |  |
| Cc1cc(C2=NOC(c3cc(Cl)cc(Cl)c3)(C(F)(F)F)C2)ccc1/C=N/OCC(=O)N1CCOCC1 (centres unmarked) [Compound 1-16] |  |  |  |  | mortality in comparison with untreated controls [8]: at least 75% |
| CC(=NO)c1ccc(C2=NOC(c3cc(Cl)cc(Cl)c3)(C(F)(F)F)C2)cc1C (centres unmarked) [Compound 1-17, 1-{4-[5-(3,5-Dichloro-phenyl)-5-trifluoromethyl-4,5-dihydro-isoxazol-3-yl]-2-methyl-phenyl}-ethanone oxime] |  | ≥ 75% | ≥ 75% | ≥ 75% | mortality at 300 ppm [9]: ≥ 75% |
| Cc1cc(C2=NOC(c3cc(Cl)cc(Cl)c3)(C(F)(F)F)C2)ccc1/C=N/NC(=O)c1ccccn1 (centres unmarked) [Compound 1-45, Pyridine-2-carboxylic acid [1-{4-[5-(3,5-dichloro-phenyl)-5-trifluoromethyl-4,5-dihydro-isoxazol-3-yl]-2-methyl-phenyl}-meth-(E)-ylidene]-hydrazide] |  |  | ≥ 75% | ≥ 75% |  |
| Cc1cc(C2=NOC(c3cc(Cl)cc(Cl)c3)(C(F)(F)F)C2)ccc1C(CC(C)C)=NO (centres unmarked) [Compound 1-55, 1-{4-[5-(3,5-Dichloro-phenyl)-5-trifluoromethyl-4,5-dihydro-isoxazol-3-yl]-2-methyl-phenyl}-3-methyl-butan-1-one oxime] |  | ≥ 75% | ≥ 75% | ≥ 75% |  |
